Assay results published in US6855710B2, “Substituted indolines with an inhibitory effect on various kinases and complexes of CDKs” (Boehringer Ingelheim Pharma KG, priority 1998, dated 2005).

`CN(CCN1CCOCC1)CC(=O)N(C)c1ccc(N/C(=C2\C(=O)Nc3ccccc32)c2ccccc2)cc1` [Example 374, (Z)-3-{1-[4-(N—(N-(2-morpholinoethyl)-N-methyl-aminomethyl-carbonyl)-N-methylamino)-phenylamino]-1-phenyl-methylidene}-2-indolinone] showed a melting point of 116 to 118 °C.

In the case of `CN(C)CC(=O)N(C)c1ccc(N/C(=C2\C(=O)Nc3ccccc32)c2ccc(CN)cc2)cc1` [Example 430, (Z)-3-{1-[4-(N-dimethylaminomethylcarbonyl-N-methyl-amino)-phenylamino]-1-(4-aminomethyl-phenyl)-methylidene}-2-indolinone], the melting point is reported as 188 to 190 °C.

`CN(C)C(=O)c1cccc(N/C(=C2\C(=O)Nc3ccccc32)c2ccccc2)c1` [Example 22, (Z)-3-[1-(3-dimethylaminocarbonyl-phenylamino)-1-phenyl-methylidene]-2-indolinone] showed a melting point of 261 to 263 °C.

`O=C1Nc2ccccc2/C1=C(/Nc1ccc(NS(=O)(=O)CCN2CCCCC2)cc1)c1ccccc1` [Example 380, (Z)-3-{1-[4-(2-piperidinoethylsulphonylamino)-phenylamino]-1-phenyl-methylidene}-2-indolinone] gave a melting point of 225 to 227 °C.

Compound `Cl.NCc1ccc(N/C(=C2\C(=O)Nc3ccc([N+](=O)[O-])cc32)c2ccccc2)cc1` has a melting point of over 370 °C.

For `CN(C)CCN(c1ccc(N/C(=C2\C(=O)Nc3ccccc32)c2ccccc2)cc1)S(=O)(=O)Cc1ccccc1` [Example 314, (Z)-3-{1-[4-(N-(2-dimethylaminoethyl)-N-benzylsulphonyl-amino)-phenylamino]-1-phenyl-methylidene}-2-indolinone], the melting point was 244 °C.

`CN(C(=O)CNCCN1CCOCC1)c1ccc(N/C(=C2\C(=O)Nc3ccccc32)c2ccccc2)cc1` [Example 373, (Z)-3-{1-[4-(N-(2-morpholinoethylaminomethylcarbonyl)-N-methyl-amino)-phenylamino]-1-phenyl-methylidene}-2-indolinone] gave a melting point of 117 to 119 °C.

`CN(C)CCN(C=O)c1ccc(N/C(=C2\C(=O)Nc3ccc([N+](=O)[O-])cc32)c2ccccc2)cc1` [Example 327, (Z)-3-{1-[4-(N-(2-dimethylaminoethyl)-N-formyl-amino)-phenylamino]-1-phenyl-methylidene}-5-nitro-2-indolinone] gave a melting point of 215 to 218 °C.

For `CCCC(=O)N(CCN1CCOCC1)c1ccc(N/C(=C2\C(=O)Nc3ccccc32)c2ccccc2)cc1` [Example 351, (Z)-3-{1-[4-(N-(2-morpholinoethyl)-N-propylcarbonyl-amino)-phenylamino]-1-phenyl-methylidene}-2-indolinone], the melting point was 219 °C.

Compound `O=C1Nc2ccc([N+](=O)[O-])cc2/C1=C(/Nc1ccc(CN2CCC(O)CC2)cc1)c1ccccc1` [Example 168, (Z)-3-{1-[4-(4-hydroxypiperidinomethyl)-phenylamino]-1-phenyl-methylidene}-5-nitro-2-indolinone] has a melting point of 155 °C.

Compound `O=C1Nc2ccc([N+](=O)[O-])cc2/C1=C(/Nc1ccc(CNc2ccccn2)cc1)c1ccccc1` [Example 279, (Z)-3-{1-[4-(pyridine-2-ylaminomethyl)-phenylamino]-1-phenyl-methylidene}-5-nitro-2-indolinone] has a melting point of 266 to 268 °C.

In the case of `O=C1Nc2ccc([N+](=O)[O-])cc2/C1=C(/Nc1ccc(CCN2CCC(C(=O)O)CC2)cc1)c1ccccc1` [Example 263, (Z)-3-{1-[4-(2-(4-carboxypiperidino)-ethyl)-phenylamino]-1-phenyl-methylidene}-5-nitro-2-indolinone], the melting point is reported as 287 to 288 °C.

For `O=C(O)Cc1ccc(N/C(=C2\C(=O)Nc3ccccc32)c2ccccc2)cc1` [Example 16, (Z)-3-[1-(4-carboxymethyl-phenylamino)-1-phenyl-methylidene]-2-indolinone], the melting point was 214 to 216 °C.

With `COc1cccc(/C(Nc2ccc(CN(C)C)cc2)=C2/C(=O)Nc3ccc([N+](=O)[O-])cc32)c1` [Example 218, (Z)-3-[1-(4-dimethylaminomethyl-phenylamino)-1-(3-methoxyphenyl)-methylidene]-5-nitro-2-indolinone] the melting point was 206 to 208 °C.

In the case of `CCN(CC)CC(=O)N(C)c1ccc(N/C(=C2\C(=O)Nc3ccccc32)c2ccccc2)cc1` [Example 49, (Z)-3-{1-[4-(N-Diethylaminomethylcarbonyl-N-methyl-amino)-phenylamino]-1-phenyl-methylidene}-2-indolinone], the melting point is reported as 242 to 247 °C.

`CNC(=O)CN(C(=O)c1ccccc1)c1ccc(N/C(=C2\C(=O)Nc3ccccc32)c2ccccc2)cc1` [Example 362, (Z)-3-{1-[4-(N-methylaminocarbonylmethyl-N-benzoyl-amino)-phenylamino]-1-phenyl-methylidene}-2-indolinone] showed a melting point of 260 to 262 °C.

For `O=C1Nc2ccc([N+](=O)[O-])cc2/C1=C(/Nc1ccc(CN2CCC2)cc1)c1ccccc1` [Example 273, (Z)-3-{1-[4-(Azetidin-1-yl-methyl)-phenylamino]-1-phenyl-methylidene}-5-nitro-2-indolinone], the melting point was 228 to 229 °C.

`CCC1CCN(Cc2ccc(N/C(=C3\C(=O)Nc4ccc([N+](=O)[O-])cc43)c3ccccc3)cc2)CC1` [Example 175, (Z)-3-{1-[4-(4-ethylpiperidinomethyl)-phenylamino]-1-phenyl-methylidene}-5-nitro-2-indolinone] showed a melting point of 225 to 227 °C.

Work on `CN(C)CCc1ccc(N/C(=C2\C(=O)Nc3ccccc32)c2ccccc2)cc1` [Example 268, (Z)-3-{1-[4-(2-dimethylamino-ethyl)-phenylamino]-1-phenyl-methylidene}-2-indolinone] yielded a melting point of 244 to 246 °C.

Work on `CCCS(=O)(=O)N(CC(=O)N(C)C)c1ccc(N/C(=C2\C(=O)Nc3ccccc32)c2ccccc2)cc1` [Example 305, (Z)-3-{1-[4-(N-(dimethylaminocarbonylmethyl)-N-propylsulphonyl-amino)-phenylamino]-1-phenyl-methylidene}-2-indolinone] yielded a melting point of 178 to 180 °C.

Work on `CN(C)Cc1ccc(N/C(=C2\C(=O)Nc3ccccc32)c2ccc([N+](=O)[O-])cc2)cc1` [Example 219, (Z)-3-[1-(4-dimethylaminomethyl-phenylamino)-1-(4-nitrophenyl)-methylidene]-2-indolinone] yielded a melting point of 235 °C.

Work on `CCC(=O)N(CCN(C)C)c1ccc(N/C(=C2\C(=O)Nc3ccc([N+](=O)[O-])cc32)c2ccccc2)cc1` [Example 329, (Z)-3-{1-[4-(N-(2-dimethylaminoethyl)-N-propionyl-amino)-phenylamino]-1-phenyl-methylidene}-5-nitro-2-indolinone] yielded a melting point of 263 to 265 °C.

Work on `O=CN(CCN1CCOCC1)c1ccc(N/C(=C2\C(=O)Nc3ccccc32)c2ccccc2)cc1` [Example 347, (Z)-3-{1-[4-(N-(2-morpholinoethyl)-N-formyl-amino)-phenylamino]-1-phenyl-methylidene}-2-indolinone] yielded a melting point of 218 °C.

Work on `CCCCN(CCCC)Cc1ccc(N/C(=C2\C(=O)Nc3ccc([N+](=O)[O-])cc32)c2ccccc2)cc1` [Example 165, (Z)-3-[1-(4-Dibutylaminomethyl-phenylamino)-1-phenyl-methylidene]-5-nitro-2-indolinone] yielded a melting point of 175 °C.

Work on `Cl.O=C1Nc2ccc([N+](=O)[O-])cc2/C1=C(/Nc1ccc(CNCc2ccccc2)cc1)c1ccccc1` yielded a melting point of 298 to 300 °C.
